Measurements taken from US20100298141A1, “SUBSTITUTED PYRIDINE N-OXIDE HERBICIDES” (E. I. DU PONT DE NEMOURS AND COMPANY, priority 2007, published 2010).

How the values were obtained:
[1] = test system: winter wheat (TRZAW); assay: Test I preemergence mixtures of compound 2 with crop safeners; format: in vivo, Triticum aestivum; conditions: alone
From the text: (§1) Seeds of test plants consisting of winter wheat (TRZAW, Triticum aestivum), corn (ZEAMD, Zea mays cv. ‘Pioneer 33G26’), wild oat (AVEFA, Avena fatua), and Italian ryegrass (LOLMU, Lolium multiflorum) were planted into a blend of loam soil and sand and treated preemergence with a directed soil spray using test chemicals formulated in a non-phytotoxic solvent mixture that included a surfactant. Seeds of small-seeded species were planted about 1 cm deep; larger seeds were planted about 2.5 cm deep. […] Balanced fertilizer was applied through the watering system. Treatments consisted of Compound 2 and the above mentioned safeners alone and in combination using a spray volume of 457 L/ha. Each treatment was replicated four times. Treated plants and controls were maintained in a greenhouse for 14 to 21 days, after which time all species were compared to controls and visually evaluated. […] A dash (-) response means no test result. Colby's Equation was used to determine the herbicidal effects expected from the mixtures. Colby's Equation (Colby, S. […] Pa+b=Pa+Pb−(PaPb/100) wherein • Pa+b is the percentage effect of the mixture expected from additive contribution of the individual components, • Pa is the observed percentage effect of the first active ingredient at the same use rate as in the mixture, and • Pb is the observed percentage effect of the second active ingredient at the same use rate as in the mixture.

[2] = test system: wild oat (AVEFA); assay: as above; format: in vivo, Avena fatua; conditions: alone
From the text: as §1

[3] = test system: winter wheat (TRZAW); assay: Test J preemergence mixtures of Compound 2 with crop safeners; format: in vivo, Triticum aestivum; design: key to TRZAW Obsd. (observed effect): observed % herbicidal effect; conditions: for TRZAW Obsd. (observed effect): Test J, alone
From the text: (§2) Seeds of test plants consisting of winter wheat (TRZAW, Triticum aestivum) and corn (ZEAMD, Zea mays cv. ‘Pioneer 33G26’) were planted into a blend of loam soil and sand and treated preemergence with a directed soil spray using test chemicals formulated in a non-phytotoxic solvent mixture that included a surfactant. […] Balanced fertilizer was applied through the watering system. Treatments consisted of Compound 2 and the above mentioned safeners alone and in combination using a spray volume of 457 L/ha. Each treatment was replicated four times. […] A dash (-) response means no test result. Colby's Equation was used to determine the herbicidal effects expected from the mixtures. Colby's Equation (Colby, S. […] wherein • Pa+b is the percentage effect of the mixture expected from additive contribution of the individual components, • Pa is the observed percentage effect of the first active ingredient at the same use rate as in the mixture, and Pb is the observed percentage effect of the second active ingredient at the same use rate as in the mixture.

[4] = test system: giant foxtail (SETFA); assay: Test H preemergence mixtures of compound 2 with crop safeners; format: in vivo, Setaria faberi; design: key to SETFA Obsd. (observed effect): observed % effect, visually evaluated vs controls; conditions: for SETFA Obsd. (observed effect): Test H, alone; for Plant response rating SETFA Obsd.: scale 0 to 100
From the text: (§3) Seeds of test plants consisting of winter wheat (TRZAW, Triticum aestivum), corn (ZEAMD, Zea mays cv. ‘Pioneer 33G26’), giant foxtail (SETFA, Setaria faberi), and Italian ryegrass (LOLMU, Lolium multiflorum) were planted into a blend of loam soil and sand and treated preemergence with a directed soil spray using test chemicals formulated in a non-phytotoxic solvent mixture that included a surfactant. Seeds of small-seeded species were planted about 1 cm deep; larger seeds were planted about 2.5 cm deep. […] Balanced fertilizer was applied through the watering system. Treatments consisted of Compound 2 and the above mentioned safeners alone and in combination using a spray volume of 457 L/ha. Each treatment was replicated four times. Treated plants and controls were maintained in a greenhouse for 14 to 21 days, after which time all species were compared to controls and visually evaluated. […] A dash (-) response means no test result. Colby's Equation was used to determine the herbicidal effects expected from the mixtures. Colby's Equation (Colby, S. […] wherein • Pa+b is the percentage effect of the mixture expected from additive contribution of the individual components, • Pa is the observed percentage effect of the first active ingredient at the same use rate as in the mixture, and • Pb is the observed percentage effect of the second active ingredient at the same use rate as in the mixture.

[5] = test system: corn (ZEAMD); assay: Test I preemergence mixtures of compound 2 with crop safeners; format: in vivo, Zea mays cv. ‘Pioneer 33G26’; conditions: alone
From the text: as §1

[6] = test system: corn (ZEAMD); assay: Test H preemergence mixtures of compound 2 with crop safeners; format: in vivo, Zea mays cv. ‘Pioneer 33G26’; design: key to ZEAMD Obsd. (observed effect): observed % effect, visually evaluated vs controls; conditions: for ZEAMD Obsd. (observed effect): Test H, alone; for Plant response rating ZEAMD Obsd.: scale 0 to 100
From the text: as §3

[7] = test system: winter wheat (TRZAW); assay: as above; format: in vivo, Triticum aestivum; design: key to TRZAW Obsd. (observed effect): observed % effect, visually evaluated vs controls; conditions: for TRZAW Obsd. (observed effect): Test H, alone; for Plant response rating TRZAW Obsd.: scale 0 to 100
From the text: as §3

[8] = test system: Italian ryegrass (LOLMU); assay: Test I preemergence mixtures of compound 2 with crop safeners; format: in vivo, Lolium multiflorum; conditions: alone
From the text: as §1

[9] = test system: corn (ZEAMD); assay: Test J preemergence mixtures of Compound 2 with crop safeners; format: in vivo, Zea mays cv. ‘Pioneer 33G26’; design: key to ZEAMD Obsd. (observed effect): observed % herbicidal effect; conditions: for ZEAMD Obsd. (observed effect): Test J, alone
From the text: as §2

[10] = test system: Italian ryegrass (LOLMU); assay: Test H preemergence mixtures of compound 2 with crop safeners; format: in vivo, Lolium multiflorum; design: key to LOLMU Obsd. (observed effect): observed % effect, visually evaluated vs controls; conditions: for LOLMU Obsd. (observed effect): Test H, alone; for Plant response rating LOLMU Obsd.: scale 0 to 100
From the text: as §3

[11] = cloquintocet-mexyl alone 8 g a.i./ha
[12] = cloquintocet-mexyl alone 16 g a.i./ha
[13] = cloquintocet-mexyl alone 31 g a.i./ha

Structure (SMILES) | TRZAW Obsd. (observed effect) ([1]; 4 g a.i./ha) | TRZAW Obsd. (observed effect) ([1]; 8 g a.i./ha) | AVEFA Obsd. (observed effect) ([2]; 4 g a.i./ha) | AVEFA Obsd. (observed effect) ([2]; 8 g a.i./ha) | SETFA Obsd. (observed effect) ([4]; 8 g a.i./ha) | SETFA Obsd. (observed effect) ([4]; 16 g a.i./ha) | SETFA Obsd. (observed effect) ([4]; 31 g a.i./ha) | ZEAMD Obsd. (observed effect) ([5]; 4 g a.i./ha) | ZEAMD Obsd. (observed effect) ([5]; 8 g a.i./ha) | ZEAMD Obsd. (observed effect) ([6]; 8 g a.i./ha) | ZEAMD Obsd. (observed effect) ([6]; 16 g a.i./ha) | ZEAMD Obsd. (observed effect) ([6]; 31 g a.i./ha) | TRZAW Obsd. (observed effect) ([7]; 8 g a.i./ha) | TRZAW Obsd. (observed effect) ([7]; 16 g a.i./ha) | TRZAW Obsd. (observed effect) ([7]; 31 g a.i./ha) | LOLMU Obsd. (observed effect) ([8]; 4 g a.i./ha) | LOLMU Obsd. (observed effect) ([8]; 8 g a.i./ha) | LOLMU Obsd. (observed effect) ([10]; 8 g a.i./ha) | LOLMU Obsd. (observed effect) ([10]; 16 g a.i./ha) | LOLMU Obsd. (observed effect) ([10]; 31 g a.i./ha) | other results
CC1COc2ccccc2N1C(=O)C(Cl)Cl (stereo not shown) [benoxacor] | 0 | 0 | 0 | 0 | 0 | 3 | 0 | 0 | 0 | 0 | 0 | 0 | 0 | 0 | 0 | 0 | 0 | 0 | 0 | 0 | TRZAW Obsd. (observed effect) ([3]; 8 g a.i./ha): 0; TRZAW Obsd. (observed effect) ([3]; 31 g a.i./ha): 0; TRZAW Obsd. (observed effect) ([3]; 125 g a.i./ha): 0; TRZAW Obsd. (observed effect) ([3]; 500 g a.i./ha): 0; ZEAMD Obsd. (observed effect) ([9]; 8 g a.i./ha): 0; ZEAMD Obsd. (observed effect) ([9]; 31 g a.i./ha): 0; ZEAMD Obsd. (observed effect) ([9]; 125 g a.i./ha): 0; ZEAMD Obsd. (observed effect) ([9]; 500 g a.i./ha): 0
CCCCCC(C)OC(=O)COc1ccc(Cl)c2cccnc12 (stereo not shown) [cloquintocet-mexyl] | 0 | 0 | 0 | 0 |  |  |  | 0 | 0 |  |  |  |  |  |  | 0 | 0 |  |  |  | Plant response rating SETFA Obsd. [4, 11]: 5; Plant response rating SETFA Obsd. [4, 12]: 3; Plant response rating SETFA Obsd. [4, 13]: 8; Plant response rating ZEAMD Obsd. [6, 11]: 0; Plant response rating ZEAMD Obsd. [6, 12]: 0; Plant response rating ZEAMD Obsd. [6, 13]: 0; Plant response rating TRZAW Obsd. [7, 11]: 0; Plant response rating TRZAW Obsd. [7, 12]: 0; Plant response rating TRZAW Obsd. [7, 13]: 0; Plant response rating LOLMU Obsd. [10, 11]: 0; Plant response rating LOLMU Obsd. [10, 12]: 8; Plant response rating LOLMU Obsd. [10, 13]: 0
C=CCN(CC=C)C(=O)C(Cl)Cl [dichlormid] | 0 | 0 | 0 | 0 | 0 | 0 | 3 | 0 | 0 | 0 | 0 | 0 | 0 | 0 | 0 | 0 | 0 | 0 | 0 | 0 | Observed effect (Obsd.), TRZAW ([3]; safener alone at 8 g a.i./ha): 0%; Observed effect (Obsd.), TRZAW ([3]; safener alone at 31 g a.i./ha): 0%; Observed effect (Obsd.), ZEAMD ([9]; safener alone at 8 g a.i./ha): 0%; Observed effect (Obsd.), ZEAMD ([9]; safener alone at 31 g a.i./ha): 0%; Observed effect (Obsd.), ZEAMD ([9]; safener alone at 500 g a.i./ha): 0%
CCOC(=O)C1=NOC(c2ccccc2)(c2ccccc2)C1 [isoxadifen-ethyl] | 0 | 0 | 0 | 0 | 0 | 0 | 3 | 0 | 0 | 0 | 0 | 0 | 0 | 0 | 0 | 0 | 0 | 0 | 0 | 0 | Observed effect (Obsd.), TRZAW ([3]; safener alone at 8 g a.i./ha): 0%; Observed effect (Obsd.), TRZAW ([3]; safener alone at 31 g a.i./ha): 0%; Observed effect (Obsd.), TRZAW ([3]; safener alone at 500 g a.i./ha): 0%; Observed effect (Obsd.), ZEAMD ([9]; safener alone at 8 g a.i./ha): 0%; Observed effect (Obsd.), ZEAMD ([9]; safener alone at 31 g a.i./ha): 0%; Observed effect (Obsd.), ZEAMD ([9]; safener alone at 500 g a.i./ha): 0%; Observed effect (Obsd.), ZEAMD ([9]; single active ingredient alone at 125 g a.i./ha): 0%
